Target: T1, Stimulator of interferon genes (STING) (Homo sapiens, UniProt Q86WV6)
T1 construct: gene STING1
Assay: DARTS in Jurkat and Hut102 cell lysates ([…]); weaker than NeoL
Format: cell-based

T1 sequence (Q86WV6 whole entry): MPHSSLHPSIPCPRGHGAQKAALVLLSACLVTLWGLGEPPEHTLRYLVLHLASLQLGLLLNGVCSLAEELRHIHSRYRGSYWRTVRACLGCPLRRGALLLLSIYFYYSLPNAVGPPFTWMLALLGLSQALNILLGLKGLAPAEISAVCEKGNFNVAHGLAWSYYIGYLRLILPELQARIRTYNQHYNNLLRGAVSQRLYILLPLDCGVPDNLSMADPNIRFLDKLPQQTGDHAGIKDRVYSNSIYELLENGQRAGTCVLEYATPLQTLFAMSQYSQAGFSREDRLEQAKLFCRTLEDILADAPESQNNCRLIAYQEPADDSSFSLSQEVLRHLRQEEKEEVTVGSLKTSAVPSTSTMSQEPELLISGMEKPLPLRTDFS

## COc1ccc(C[C@@H]2c3cc(Oc4cc(C[C@@H]5c6cc(O)c(OC)cc6CCN5C)ccc4O)c(OC)cc3CCN2C)cc1 [IsoL, isoliensinine]
  DARTS in Jurkat and Hut102 cell lysates (80 μmol/L); weaker than NeoL: incubation with NeoL and IsoL led to increased STING in the Jurkat and Hut102 cell lysates

From PMC13485499, “Neoliensinine promotes lysosomal cell death in T cell malignancies via a novel STING-TUBA1B pathway” (Genes & Diseases, 2025)
